Biological target: T1, BCL6::BCOR (Homo sapiens, UniProt P41182, C67R/C84N/C8Q)
T1 construct: BCL6 (amino acids 5 to 129, with the following changes to the natural protein); made in house; host or cells: E. coli
Assay: BCL6::BCOR ULight TR-FRET assay
Format: binding
Source text: Biological Methods BCL6::BCOR ULight TR-FRET Assay:
Biotinylated BCL6 protein corresponding to BCL6 (amino acids 5 to 129, with the following changes to the natural protein: C8Q, C67R, C84N) is expressed in E. coli with a carboxy-terminal Avi tag (amino acid sequence […]). The BCOR ULight peptide uses a direct carboxy-terminal ULight tag (PerkinElmer). The sequence of the peptide is CRSEIISTAPSSWVVPGP, with the amino terminus acetylated and the ULight tag attached to the cysteine. Compounds are dispensed onto assay plates (Proxiplate 384 PLUS, white, PerkinElmer) using an Access Labcyte Workstation with the Labcyte Echo 55×from a DMSO solution. For the chosen highest assay concentration of 100 μM, 150 nl of compound solution are transferred from a 10 mM DMSO compound stock solution. A series of 11 concentrations is transferred for each compound at which each concentration is fivefold lower than the previous one. DMSO is added such that every well has a total of 150 nl compound solution. 5 μL of 1 nM BCL6 protein in assay buffer (50 mM HEPES pH 7.3; 125 mM NaCl; 1 mM GSH; 0.01% Triton-X 100; 0.03% BSA) are added to the 150 nl of compounds. After 30 minutes incubation time at room temperature, 10 μL of a mix containing BCOR ULight peptide (100 nM final assay concentration) and Streptavidin-Europium (0.75 nM final assay concentration) are added. Plates are kept at room temperature. After 240 minutes incubation time the TR-FRET signal is measured in a PerkinElmer Envision HTS Multilabel Reader using the TR-FRET LANCE Ultra specs of PerkinElmer. Each plate contains negative controls (diluted DMSO instead of test compound; BCOR peptide and Streptavidin Europium mix with BCL6 protein) and positive controls (diluted DMSO instead of test compound; BCOR peptide and Streptavidin-Europium mix without BCL6 protein). Negative and positive control values are used for normalization.

Row | Structure (SMILES) | IC50 [nM]
1 | C[C@@H]1C[C@H](C)CN(c2ncc(Cl)c(Nc3ccc4c(c3)cc(O[C@H](C)C(=O)O)c(=O)n4C)n2)C1 (relative stereo) [Compound I-154] | 82
2 | CNC(=O)COc1cc2cc(Nc3nc(N4C[C@H](C)C[C@@H](C)C4)ncc3Cl)ccc2n(C)c1=O (single isomer, unassigned) [Compound I-5] | 12
3 | CNC(=O)COc1cc2cc(Nc3nc(N4C[C@@H](C)C[C@H](C)C4)ncc3Cl)ccc2n(C)c1=O (single isomer, unassigned) [Compound I-6] | 7
4 | CNC(=O)COc1cc2cc(Nc3nc(N4C[C@H](CO)N[C@@H](C)C4)ncc3Cl)ccc2n(C)c1=O (single isomer, unassigned) [Compound I-10] | 18
5 | CNC(=O)COc1cc2cc(Nc3nc(N4C[C@@H](CO)N[C@@H](C)C4)ncc3Cl)ccc2n(C)c1=O (single isomer, unassigned) [Compound I-11] | 13
6 | C[C@@H]1C[C@H](C)CN(c2ncc(Cl)c(Nc3ccc4c(c3)cc(OC[S@@+](C)[O-])c(=O)n4C)n2)C1 (single isomer, unassigned) [Compound I-173] | 37
7 | C[C@@H]1C[C@H](C)CN(c2ncc(Cl)c(Nc3ccc4c(c3)cc(OC[S+](C)[O-])c(=O)n4C)n2)C1 (single isomer, unassigned) [Compound I-174] | 16
8 | COC(=O)COc1cc2cc(Nc3nc(N4C[C@H](C)C[C@H](C)C4)ncc3Cl)ccc2n(C)c1=O [Compound I-1, methyl 2-{[6-({5-chloro-2-[cis-3,5-dimethylpiperidin-1-yl]pyrimidin-4-yl}amino)-1-methyl-2-oxo-1,2-dihydroquinolin-3-yl]oxy}acetate] | 10
9 | COC(=O)COc1cc2cc(Nc3nc(N4CCC(F)CC4)ncc3Cl)ccc2n(C)c1=O [Compound I-2, methyl 2-[(6-{[5-chloro-2-(4-fluoropiperidin-1-yl)pyrimidin-4-yl]amino}-1-methyl-2-oxo-1,2-dihydro-quinolin-3-yl)oxy]-acetate] | 9
10 | CNC(=O)COc1cc2cc(Nc3nc(N4CCN(CCOC)CC4)ncc3Cl)ccc2n(C)c1=O [Compound I-3, 2-{[6-({5-chloro-2-[4-(2-methoxyethyl)piperazin-1-yl]pyrimidin-4-yl}amino)-1-methyl-2-oxo-1,2-dihydroquinolin-3-yl]oxy}-N-methylacetamide] | 7
11 | CNC(=O)COc1cc2cc(Nc3nc(N4C[C@H](C)C[C@H](C)C4)ncc3Cl)ccc2n(C)c1=O [Compound I-4, 2-[(6-{[5-chloro-2-(cis-3,5-dimethylpiperidin-1-yl)pyrimidin-4-yl]amino}-1-methyl-2-oxo-1,2-dihydro-quinolin-3-yl)oxy]-N-methylacetamide] | 3
12 | CNC(=O)COc1cc2cc(Nc3nc(N4C[C@H]5CC[C@@H](C4)O5)ncc3Cl)ccc2n(C)c1=O [Compound I-7, 2-({6-[(5-chloro-2-{8-oxa-3-azabicyclo[3.2.1]octan-3-yl}pyrimidin-4-yl)amino]-1-methyl-2-oxo-1,2-dihydroquinolin-3-yl}oxy)-N-methylacetamide] | 5
13 | CNC(=O)COc1cc2cc(Nc3nc(N4C[C@H](C)C[C@@H](NC)C4)ncc3Cl)ccc2n(C)c1=O [Compound I-8, 2-{[6-({5-chloro-2-[(3R,5R)-3-methyl-5-(methylamino)piperidin-1-yl]pyrimidin-4-yl}amino)-1-methyl-2-oxo-1,2-dihydroquinolin-3-yl]oxy}-N-methylacetamide] | 21
14 | CNC(=O)COc1cc2cc(Nc3nc(N4C[C@H](CO)N[C@H](C)C4)ncc3Cl)ccc2n(C)c1=O [Compound I-9, 2-{[6-({5-chloro-2-[(3R,5R)-3-(hydroxymethyl)-5-methylpiperazin-1-yl]pyrimidin-4-yl}amino)-1-methyl-2-oxo-1,2-dihydroquinolin-3-yl]oxy}-N-methylacetamide] | 41
15 | CNC(=O)COc1cc2cc(Nc3nc(N4CC(C)NC(CF)C4)ncc3Cl)ccc2n(C)c1=O (stereo not drawn) [Compound I-12, 2-{[6-({5-chloro-2-[3-(fluoromethyl)-5-methylpiperazin-1 yl]pyrimidin-4-yl}amino)-1-methyl-2-oxo-1,2-dihydroquinolin-3-yl]oxy}-N-methylacetamide] | 7
16 | CNC(=O)COc1cc2cc(Nc3nc(N4CC(C)C(C(=O)N(C)C)C(C)C4)ncc3Cl)ccc2n(C)c1=O (stereo not drawn) [Compound I-13, 1-[5-chloro-4-({1-methyl-3-[(methylcarbamoyl)-methoxy]-2-oxo-1,2-dihydroquinolin-6-yl}amino)pyrimidin-2-yl]-N,N,3,5-tetramethylpiperidine-4-carboxamide] | 5
17 | CNC(=O)COc1cc2cc(Nc3nc(N4C[C@H](C(F)(F)F)C[C@H](C(F)(F)F)C4)ncc3Cl)ccc2n(C)c1=O [Compound I-14, 2-{[6-({2-[cis-3,5-bis(trifluoromethyl)piperidin-1-yl]-5-chloropyrimidin-4-yl}amino)-1-methyl-2-oxo-1,2-dihydroquinolin-3-yl]oxy}-N-methyl-acetamide] | 20
18 | CNC(=O)COc1cc2cc(Nc3nc(N4CCN(c5ccccn5)CC4)ncc3Cl)ccc2n(C)c1=O [Compound I-15] | 32
19 | CNC(=O)COc1cc2cc(Nc3nc(N4CCN(CCN(C)C)C(=O)C4)ncc3Cl)ccc2n(C)c1=O [Compound I-16] | 10
20 | CNC(=O)COc1cc2cc(Nc3nc(N4CCCC[C@H]4C)ncc3Cl)ccc2n(C)c1=O [Compound I-17] | 8
21 | CNC(=O)COc1cc2cc(Nc3nc(N4CCN(C(=O)CN(C)C)CC4)ncc3Cl)ccc2n(C)c1=O [Compound I-18] | 7
22 | CNC(=O)COc1cc2cc(Nc3nc(N4CCCCC4)ncc3Cl)ccc2n(C)c1=O [Compound I-19] | 6
23 | CNC(=O)COc1cc2cc(Nc3nc(N4CCN(CCN(C)C)CC4)ncc3Cl)ccc2n(C)c1=O [Compound I-20] | 6

Row | Structure (SMILES) | IC50 [nM]
24 | CNC(=O)COc1cc2cc(Nc3nc(N4CCCC(F)CC4)ncc3F)ccc2n(C)c1=O (stereo not drawn) [Compound I-21] | 12
25 | CNC(=O)COc1cc2cc(Nc3nc(N4CCC(F)CC4)ncc3F)ccc2n(C)c1=O [Compound I-22] | 10
26 | CNC(=O)COc1cc2cc(Nc3nc(N4C[C@H](C)C[C@H](C)C4)ncc3F)ccc2n(C)c1=O [Compound I-23] | 9
27 | CNC(=O)COc1cc2cc(Nc3nc(N4CC(C)(C)CC(C)(C)C4)ncc3Cl)ccc2n(C)c1=O [Compound I-24] | 13
28 | CNC(=O)COc1cc2cc(Nc3nc(N4CCC(F)CC4)ncc3Cl)ccc2n(C)c1=O [Compound I-25] | 4
29 | CNC(=O)COc1cc2cc(Nc3nc(N4CCC(F)(F)CC4)ncc3Cl)ccc2n(C)c1=O [Compound I-26] | 4
30 | CNC(=O)COc1cc2cc(Nc3nc(N4CCC(F)(F)CC4)ncc3F)ccc2n(C)c1=O [Compound I-27] | 6
31 | CNC(=O)COc1cc2cc(Nc3nc(N4CCC(C(=O)N(C)C)CC4)ncc3F)ccc2n(C)c1=O [Compound I-28] | 12
32 | CNC(=O)COc1cc2cc(Nc3nc(N4CCCC(F)(F)C4)ncc3Cl)ccc2n(C)c1=O [Compound I-29] | 10
33 | CNC(=O)COc1cc2cc(Nc3nc(N4CCC(C#N)CC4)ncc3Cl)ccc2n(C)c1=O [Compound I-30] | 5
34 | CNC(=O)COc1cc2cc(Nc3nc(N4CCC5(CC4)CC5)ncc3Cl)ccc2n(C)c1=O [Compound I-31] | 6
35 | CNC(=O)COc1cc2cc(Nc3nc(N4CCC(O)(C(F)(F)F)CC4)ncc3Cl)ccc2n(C)c1=O [Compound I-32] | 5
36 | CNC(=O)COc1cc2cc(Nc3nc(N4CCC(C(F)(F)F)CC4)ncc3Cl)ccc2n(C)c1=O [Compound I-33] | 62
37 | CNC(=O)COc1cc2cc(Nc3nc(N4CCC(Cl)CC4)ncc3Cl)ccc2n(C)c1=O [Compound I-34] | 6
38 | CNC(=O)COc1cc2cc(Nc3nc(N4CCC(C)CC4)ncc3Cl)ccc2n(C)c1=O [Compound I-35] | 8
39 | CNC(=O)COc1cc2cc(Nc3nc(N4CCC5(CCN(C)CC5)CC4)ncc3Cl)ccc2n(C)c1=O [Compound I-36] | 5
40 | CNC(=O)COc1cc2cc(Nc3nc(N4CCC(N5CCCCCC5)CC4)ncc3Cl)ccc2n(C)c1=O [Compound I-37] | 7
41 | CCN1CCN(C2CCN(c3ncc(Cl)c(Nc4ccc5c(c4)cc(OCC(=O)NC)c(=O)n5C)n3)CC2)CC1 [Compound I-38] | 35
42 | CNC(=O)COc1cc2cc(Nc3nc(N4CCC(N5CCC(C)CC5)CC4)ncc3Cl)ccc2n(C)c1=O [Compound I-40] | 9
43 | CNC(=O)COc1cc2cc(Nc3nc(N4CCC(N5CCCC5)CC4)ncc3Cl)ccc2n(C)c1=O [Compound I-41] | 8
44 | CNC(=O)COc1cc2cc(Nc3nc(N4CCC(N5CCCCC5)CC4)ncc3Cl)ccc2n(C)c1=O [Compound I-42] | 9
45 | CNC(=O)COc1cc2cc(Nc3nc(N4CCC(CCN5CCCCC5)CC4)ncc3Cl)ccc2n(C)c1=O [Compound I-43] | 6

Reference: US11001570B2, “6-amino-quinolinone compounds and derivatives as BCL6 inhibitors” (Boehringer Ingelheim International GmbH, priority 2016, dated 2021)
